Each block holds one compound with its values, some of them ahead of it.
What was measured:
nasal mucosa [1] = conditions: propylene glycol in place of ethanol; cited from earlier work
nasal mucosa [2] = conditions: in vivo
[3] = Blood plasma melatonin concentrations and pharmacokinetics in healthy male volunteers, by radioimmunoassay (cross-over study); assay type: in vivo, human; conditions: for Tmax: human, plasma
Description: An open randomized, four treatment (treatments A, B, C and D below), cross-over study involving 8 healthy male volunteers was carried out. Before drug administration, the subjects were fasted overnight for at least 10 hours. The administered formulations were as follows:
A: 100 μl water, intranasal (placebo);

[4] = cited from earlier work

Compound: CC(O)CO (stereo not drawn) [propylene glycol]
- toxicity to the nasal mucosa (nasal mucosa [1]): adversely affects the nasal mucosa

Compound: OCC(O)CO [glycerol]
- irritation of the nasal mucosa (nasal mucosa [2]): does not lead to irritation of the nasal mucosa
- toxicity towards the epithelial membrane (epithelial membrane): does not exert toxicity towards the epithelial membrane

- Cmax, times higher than that resulting from the oral dose ([3]; 0.2 mg nasal vs 2.5 mg oral): about 5 times
- amount of melatonin absorbed, 0.2 mg nasal dose vs 2.5 mg oral dose ([3]; 0.2 mg nasal vs 2.5 mg oral): About the same amount
- amount of melatonin absorbed, 0.4 mg nasal dose vs 0.2 mg nasal dose ([3]; 0.4 mg nasal vs 0.2 mg nasal): proportional
- Cmax, times higher than that resulting from the oral dose ([3]; 0.4 mg nasal vs 2.5 mg oral): ~11 times
- dose proportionality of peak plasma concentrations (Cmax) ([3]; 0.2 and 0.4 mg nasal doses): proportional
- Tmax ([3]; po, 2.5 mg): 1.5 h
- Tmax ([3]; 0.2 and 0.4 mg nasal doses): < 0.167 h
- rate of absorption ([3]; nasally administered): absorbed extremely rapidly
Compound: COc1ccc2[nH]cc(CCNC(C)=O)c2c1 [melatonin, N-acetyl-5-methoxytryptamine]
- solubility in water [4]: low solubility

From patent US6007834A (priority 1997, dated 1999)
